Active and inactive are the calls of the source. No cut-off for these calls is given here.
Key:
Type in all cases: functional
[1] = species: Mus musculus; assay: Muscle relaxant activity in mouse
[2] = species: Mus musculus; assay: Anticonvulsion activity in mouse assessed as protection against pentylenetetrazole-induced convulsion
[3] = species: Mus musculus; assay: Taming activity in mouse assessed as suppression of electrical current-induced aggressive behavior by foot-shock test
[4] = species: Mus musculus; assay: Sedative activity in mouse
[5] = species: Felis catus; assay: Muscle relaxant activity in cat suspended by scruff of neck assessed as relaxation of body and hind legs

Compound	log(1/ED50) [1]	log(1/ED50) [2]	log(1/MED) [3]	log(1/ED50) [4]	log(1/MED) [5]	Activity [3]	Activity [2]	Activity [1]	Activity [4]
N#Cc1ccc2c(c1)C(c1ccccc1F)=NCC(=O)N2	0.5705	2.6327	1.7466	0.5705	3.7466	–	–	–	–
CCSc1ccc2c(c1)C(c1ccccc1)=NCC(=O)N2	–	0.2702	–	–	–	inactive	–	–	–
O=C1CN=C(c2ccccc2F)c2cc(Br)ccc2N1	1.5223	2.8233	2.1244	1.5223	3.8233	–	–	–	–
CSc1ccc2c(c1)C(c1ccccc1)=NCC(=O)N2C	0.7724	0.5963	0.8693	0.7724	2.4714	–	–	–	–
O=C1CN=C(c2ccccc2)c2cc(F)ccc2N1 [RO-053061]	0.2287	–	0.4048	0.2287	1.8028	–	inactive	–	–
O=C1CN=C(c2ccccc2)c2ccc(Cl)cc2N1	–	-0.0917	–	–	–	inactive	–	inactive	inactive
CN1C(=O)CN=C(c2ccccc2C(F)(F)F)c2cc([N+](=O)[O-])ccc21	0.8609	2.7148	1.8609	0.8609	3.5599	–	–	–	–
COc1ccc(C2=NCC(=O)Nc3ccc(Cl)cc32)cc1	–	-0.4253	–	–	–	inactive	–	inactive	inactive
O=C1CN=C(c2ccccc2)c2c(Cl)cccc2N1	–	0.1311	–	–	–	inactive	–	inactive	inactive
O=C1CN=C(c2ccccc2[N+](=O)[O-])c2cc([N+](=O)[O-])ccc2N1	–	2.9691	0.9112	–	–	–	–	inactive	inactive
Cc1cc2c(cc1C)C(c1ccccc1)=NCC(=O)N2	–	0.2978	–	–	–	inactive	–	inactive	inactive
Cc1cc(C)c2c(c1)C(c1ccccc1)=NCC(=O)N2	-0.2316	–	0.4216	-0.2316	–	–	inactive	–	–
Cc1ccc2c(c1)C(c1ccccc1)=NCC(=O)N2	–	0.1549	–	–	–	inactive	–	inactive	inactive
COc1cccc(C2=NCC(=O)Nc3ccc(Cl)cc32)c1	–	2.2225	–	–	–	inactive	–	inactive	inactive
O=C1CN=C(c2cccc([N+](=O)[O-])c2)c2cc([N+](=O)[O-])ccc2N1	-0.0888	0.8142	–	-0.0888	–	inactive	–	–	–
O=C1CN=C(c2ccccc2)c2ccc(C(F)(F)F)cc2N1	-0.1703	–	–	-0.1703	–	inactive	–	–	–
CS(=O)(=O)c1ccc2c(c1)C(c1ccccc1)=NCC(=O)N2	–	0.2811	–	–	–	inactive	–	inactive	inactive
Cc1cccc(C2=NCC(=O)Nc3ccc(Cl)cc32)c1	–	0.8519	–	–	–	inactive	–	inactive	inactive
CN1C(=O)CN=C(c2ccc(Cl)cc2)c2cc(Cl)ccc21 [RO-54864]	0.5037	–	–	0.5037	–	inactive	inactive	–	–
COc1cc2c(cc1Br)C(c1ccccc1)=NCC(=O)N2	0.3616	1.6626	0.6346	0.3616	–	–	–	–	–
O=C1CN=C(c2ccccc2)c2cccc([N+](=O)[O-])c2N1	-0.2503	–	–	-0.2503	–	inactive	inactive	–	–

— ChEMBL document CHEMBL3272278, “Electronic factors in the structure-activity relationship of some 1,4-benzodiazepin-2-ones” (1977)
